The text below walks through data of patent US10858356B2, “Pyrazolopyridine derivative having GLP-1 receptor agonist effect” (Chugai Seiyaku Kabushiki Kaisha, priority 2016, dated 2020).

The structures appear in SMILES notation.

In the experiment the target is human GLP1R (Homo sapiens (Human), UniProt P43220). The experiment can be described thus: In vitro cAMP signal activation in human GLP1R stably-expressing cell line (hGLP1R-HEK293). The format is cell-based. The settings on record: cAMP concentration in hGLP1R-HEK293; 100% = 1 nM human GLP-1 (7-37).
human GLP1R, sequence (P43220 24-463): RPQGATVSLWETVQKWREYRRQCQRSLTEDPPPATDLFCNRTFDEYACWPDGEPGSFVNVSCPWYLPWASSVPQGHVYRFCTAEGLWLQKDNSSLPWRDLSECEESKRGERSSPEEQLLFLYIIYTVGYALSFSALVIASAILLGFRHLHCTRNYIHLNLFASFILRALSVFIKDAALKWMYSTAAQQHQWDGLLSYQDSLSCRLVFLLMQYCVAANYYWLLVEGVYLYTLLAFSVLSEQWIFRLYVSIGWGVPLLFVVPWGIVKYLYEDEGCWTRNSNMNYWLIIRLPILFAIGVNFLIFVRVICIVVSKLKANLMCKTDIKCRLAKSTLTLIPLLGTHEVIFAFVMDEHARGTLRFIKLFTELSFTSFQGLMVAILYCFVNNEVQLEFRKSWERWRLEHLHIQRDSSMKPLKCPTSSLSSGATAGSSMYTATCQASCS
In the case of `Cc1cc(-n2nc3c(c2-n2ccn(-c4ccc5c(c4)CC(=O)N(C)C5)c2=O)[C@H](C)N(C(=O)c2cc4cc([C@H]5CCOC(C)(C)C5)ccc4n2[C@@]2(c4noc(=O)[nH]4)C[C@@H]2C)CC3)cc(C)c1F` [Example 39, 3-[(1S,2S)-1-[5-[(4S)-2,2-dimethyloxan-4-yl]-2-[(4S)-2-(4-fluoro-3,5-dimethylphenyl)-4-methyl-3-[3-(2-methyl-3-oxo-1,4-dihydroisoquinolin-6-yl)-2-oxoimidazol-1-yl]-6,7-dihydro-4H-pyrazolo[4,3-c]pyridine-5-carbonyl]indol-1-yl]-2-methylcyclopropyl]-4H-1,2,4-oxadiazol-5-one], a half-maximal effect (EC50) was put at 1 nM.

As for `Cc1cc(-n2nc3c(c2-n2ccn(-c4ccc5c(cnn5C)c4F)c2=O)[C@H](C)N(C(=O)c2cc4cc([C@H]5CCOC(C)(C)C5)ccc4n2[C@@]2(c4noc(=O)[nH]4)C[C@@H]2C)CC3)ccc1F` [compound 69, 3-[(1S,2S)-1-[5-[(4S)-2,2-dimethyloxan-4-yl]-2-[(4S)-3-[3-(4-fluoro-1-methylindazol-5-yl)-2-oxoimidazol-1-yl]-2-(4-fluoro-3-methylphenyl)-4-methyl-6,7-dihydro-4H-pyrazolo[4,3-c]pyridine-5-carbonyl]indol-1-yl]-2-methylcyclopropyl]-4H-1,2,4-oxadiazol-5-one], the midpoint of the response, the EC50, lay at 2.8 nM.

On to `Cc1cc(-n2nc3c(c2-n2ccn(-c4ccc5c(cnn5CC(C)(C)O)c4F)c2=O)[C@H](C)N(C(=O)c2cc4cc([C@H]5CCOC(C)(C)C5)ccc4n2[C@@]2(c4noc(=O)[nH]4)C[C@@H]2C)CC3)cc(C)c1F` [Example 38, 3-[(1S,2S)-1-[5-[(4S)-2,2-dimethyloxan-4-yl]-2-[(4S)-2-(4-fluoro-3,5-dimethylphenyl)-3-[3-[4-fluoro-1-(2-hydroxy-2-methylpropyl)indazol-5-yl]-2-oxoimidazol-1-yl]-4-methyl-6,7-dihydro-4H-pyrazolo[4,3-c]pyridine-5-carbonyl]indol-1-yl]-2-methylcyclopropyl]-4H-1,2,4-oxadiazol-5-one], for which the EC50 (commonly the midpoint of the concentration-response curve) is 1.7 nM.

In turn, `Cc1cc(-n2nc3c(c2-n2ccn(-c4ccc5c(cnn5C)c4Cl)c2=O)[C@H](C)N(C(=O)c2cc4cc(C5CCOCC5)ccc4n2[C@@]2(c4noc(=O)[nH]4)C[C@@H]2C)CC3)cc(C)c1F` [compound 72, 3-[(1S,2S)-1-[2-[(4S)-3-[3-(4-chloro-1-methylindazol-5-yl)-2-oxoimidazol-1-yl]-2-(4-fluoro-3,5-dimethylphenyl)-4-methyl-6,7-dihydro-4H-pyrazolo[4,3-c]pyridine-5-carbonyl]-5-(oxan-4-y)indol-1-yl]-2-methylcyclopropyl]-4H-1,2,4-oxadiazol-5-one] registered an EC50 of 2.3 nM.

For the compound `Cc1cc(-n2nc3c(c2-n2ccn(-c4ccc5c(cnn5CC5(C)COC5)c4F)c2=O)[C@H](C)N(C(=O)c2cc4cc([C@H]5CCOC(C)(C)C5)ccc4n2[C@@]2(c4noc(=O)[nH]4)C[C@@H]2C)CC3)cc(C)c1F` [Example 37, 3-[(1S,2S)-1-[5-[(4S)-2,2-dimethyloxan-4-yl]-2-[(4S)-2-(4-fluoro-3,5-dimethylphenyl)-3-[3-[4-fluoro-1-[(3-methyloxetan-3-yl)methyl]indazol-5-yl]-2-oxoimidazol-1-yl]-4-methyl-6,7-dihydro-4H-pyrazolo[4,3-c]pyridine-5-carbonyl]indol-1-yl]-2-methylcyclopropyl]-4H-1,2,4-oxadiazol-5-one], the EC50 is 2.5 nM.

In turn, `COCCn1ncc2c(F)c(-n3ccn(-c4c5c(nn4-c4cc(C)c(Cl)c(C)c4)CCN(C(=O)c4cc6cc([C@H]7CCOC(C)(C)C7)ccc6n4[C@@]4(c6noc(=O)[nH]6)C[C@@H]4C)[C@H]5C)c3=O)ccc21` [Example 43, 3-[(1S,2S)-1-[2-[(4S)-2-(4-chloro-3,5-dimethylphenyl)-3-[3-[4-fluoro-1-(2-methoxyethyl)indazol-5-yl]-2-oxoimidazol-1-yl]-4-methyl-6,7-dihydro-4H-pyrazolo[4,3-c]pyridine-5-carbonyl]-5-[(4S)-2,2-dimethyloxan-4-yl]indol-1-yl]-2-methylcyclopropyl]-4H-1,2,4-oxadiazol-5-one] had an EC50 of 1.5 nM. This EC50 is about 1.7-fold lower than that of the compound before.

As for `Cc1cc(-n2ccn(-c3c4c(nn3-c3cc(C)c(F)c(C)c3)CCN(C(=O)c3cc5cc(C6CCOCC6)ccc5n3[C@@]3(c5noc(=O)[nH]5)C[C@@H]3C)[C@H]4C)c2=O)ccc1OCCO` [Example 19, 3-[(1S,2S)-1-[2-[(4S)-2-(4-fluoro-3,5-dimethylphenyl)-3-[3-[4-(2-hydroxyethoxy)-3-methylphenyl]-2-oxoimidazol-1-yl]-4-methyl-6,7-dihydro-4H-pyrazolo[4,3-c]pyridine-5-carbonyl]-5-(oxan-4-yl)indol-1-yl]-2-methylcyclopropyl]-4H-1,2,4-oxadiazol-5-one], the EC50 turned out to be 1.3 nM.

Turning to `Cc1cc(-n2nc3c(c2-n2ccn(-c4ccc5c(cnn5[C@@H]5CCOC5)c4)c2=O)CN(C(=O)c2cc4cc(C5CCOCC5)ccc4n2[C@@]2(c4noc(=O)[nH]4)C[C@@H]2C)CC3)cc(C)c1F` [Example 8, 3-[(1S,2S)-1-[2-[2-(4-fluoro-3,5-dimethylphenyl)-3-[2-oxo-3-[1-[(3R)-oxolan-3-yl]indazol-5-yl]imidazol-1-yl]-6,7-dihydro-4H-pyrazolo[4,3-c]pyridine-5-carbonyl]-5-(oxan-4-yl)indol-1-yl]-2-methylcyclopropyl]-4H-1,2,4-oxadiazol-5-one], the response was half-maximal at 2.5 nM (EC50).

With `Cc1cc(-n2nc3c(c2-n2ccn(-c4ccc5c(c4)CCOC5(C)C)c2=O)[C@H](C)N(C(=O)c2cc4cc(C5CCOCC5)ccc4n2[C@@]2(c4noc(=O)[nH]4)C[C@@H]2C)CC3)cc(C)c1F` [Example 24, 3-[(1S,2S)-1-[2-[(4S)-3-[3-(1,1-dimethyl-3,4-dihydroisochromen-6-yl)-2-oxoimidazol-1-yl]-2-(4-fluoro-3,5-dimethylphenyl)-4-methyl-6,7-dihydro-4H-pyrazolo[4,3-c]pyridine-5-carbonyl]-5-(oxan-4-yl)indol-1-yl]-2-methylcyclopropyl]-4H-1,2,4-oxadiazol-5-one], a half-maximal effect (EC50) was put at 2.5 nM.

`Cc1cc(-n2nc3c(c2-n2ccn(-c4ccc5c(cnn5C)c4Cl)c2=O)[C@H](C)N(C(=O)c2cc4cc([C@H]5CCOC(C)(C)C5)ccc4n2[C@@]2(c4noc(=O)[nH]4)C[C@@H]2C)CC3)cc(C)c1F` [compound 68, 3-[(1S,2S)-1-[2-[(4S)-3-[3-(4-chloro-1-methylindazol-5-yl)-2-oxoimidazol-1-yl]-2-(4-fluoro-3,5-dimethylphenyl)-4-methyl-6,7-dihydro-4H-pyrazolo[4,3-c]pyridine-5-carbonyl]-5-[(4S)-2,2-dimethyloxan-4-yl]indol-1-yl]-2-methylcyclopropyl]-4H-1,2,4-oxadiazol-5-one]: the EC50 turned out to be 1.8 nM. This EC50 and that of the compound before are within 1.5-fold of each other.

In turn, `Cc1cc(-n2nc3c(c2-n2ccn(-c4ccc5c(cnn5CC5(C)COC5)c4)c2=O)[C@H](C)N(C(=O)c2cc4cc(C5CCOCC5)ccc4n2[C@@]2(c4noc(=O)[nH]4)C[C@@H]2C)CC3)cc(C)c1F` [Example 17, 3-[(1S,2S)-1-[2-[(4S)-2-(4-fluoro-3,5-dimethylphenyl)-4-methyl-3-[3-[1-[(3-methyloxetan-3-yl)methyl]indazol-5-yl]-2-oxoimidazol-1-yl]-6,7-dihydro-4H-pyrazolo[4,3-c]pyridine-5-carbonyl]-5-(oxan-4-yl)indol-1-yl]-2-methylcyclopropyl]-4H-1,2,4-oxadiazol-5-one] returned an EC50 of 1 nM.

In turn, `Cc1cc(-n2nc3c(c2-n2ccn(-c4ccc5c(cnn5C)c4)c2=O)[C@H](C)N(C(=O)c2cc4cc([C@H]5CCOC(C)(C)C5)ccc4n2[C@@]2(c4noc(=O)[nH]4)C[C@@H]2C)CC3)ccc1F` [Example 50, 3-[(1S,2S)-1-[5-[(4S)-2,2-dimethyloxan-4-yl]-2-[(4S)-2-(4-fluoro-3-methylphenyl)-4-methyl-3-[3-(1-methylindazol-5-yl)-2-oxoimidazol-1-yl]-6,7-dihydro-4H-pyrazolo[4,3-c]pyridine-5-carbonyl]indol-1-yl]-2-methylcyclopropyl]-4H-1,2,4-oxadiazol-5-one] registered an EC50 of 2.9 nM.

The compound `Cc1cc(-n2nc3c(c2-n2ccn(-c4ccc5c(cnn5CC5(C)COC5)c4F)c2=O)[C@H](C)N(C(=O)c2cc4cc(C5CCOCC5)ccc4n2[C@@]2(c4noc(=O)[nH]4)C[C@@H]2C)CC3)cc(C)c1F` [Example 29, 3-[(1S,2S)-1-[2-[(4S)-2-(4-fluoro-3,5-dimethylphenyl)-3-[3-[4-fluoro-1-[(3-methyloxetan-3-yl)methyl]indazol-5-yl]-2-oxoimidazol-1-yl]-4-methyl-6,7-dihydro-4H-pyrazolo[4,3-c]pyridine-5-carbonyl]-5-(oxan-4-yl)indol-1-yl]-2-methylcyclopropyl]-4H-1,2,4-oxadiazol-5-one] gave a 50% effective concentration (EC50) of 1.4 nM.

`COCCCN(C(C)=O)c1ccc(-n2ccn(-c3c4c(nn3-c3cc(C)c(F)c(C)c3)CCN(C(=O)c3cc5cc(C6CCOCC6)ccc5n3[C@@]3(c5noc(=O)[nH]5)C[C@@H]3C)C4)c2=O)cc1OC` [Example 9, N-[4-[3-[2-(4-fluoro-3,5-dimethylphenyl)-5-[1-[(1S,2S)-2-methyl-1-(5-oxo-4H-1,2,4-oxadiazol-3-yl)cyclopropyl]-5-(oxan-4-yl)indole-2-carbonyl]-6,7-dihydro-4H-pyrazolo[4,3-c]pyridin-3-yl]-2-oxoimidazol-1-yl]-2-methoxyphenyl]-N-(3-methoxypropyl)acetamide] displayed an EC50 of 1.8 nM.
